Source: patent publication US20160075653A1, “NEMATICIDAL N-(PHENYLCYCLOALKYL)CARBOXAMIDES AND N-(PHENYLCYCLOALKYL)THIOCARBOXAMIDES” (BAYER CROPSCIENCE AKTIENGESELLSCHAFT, priority 2013, published 2016)
Read-outs that look alike come from different tables or passages of the source.

Experiment: Measurement of log P values by HPLC on reversed phase columns (methods [a] pH 2.3, [b] pH 2.7, [c] pH 7.8)
Type: physicochemical
Conditions: for chromatographic logP: reversed phase HPLC columns
Summary of the method: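 Retention times were converted to log P by linear interpolation between linear alkan-2-one standards (3 to 16 carbons) of known log P. Eluents, each with 10% to 95% acetonitrile gradient: phosphoric acid 0.1% at pH 2.3 [a]; formic acid 0.1% at pH 2.7, LC-MS [b]; ammonium hydrogen carbonate 0.001 molar at pH 7.8, LC-MS [c].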

[1] = HPLC on reversed phase column, method [b], pH 2.7
[2] = HPLC-MS, method letter not given, read-out: log P
[3] = HPLC reversed phase, method [b] (pH 2.7)
[4] = HPLC reversed phase, method [c] pH 7.8

O=C(N[C@@H]1CC[C@@H]1c1ccc(Cl)cc1C(F)(F)F)c1ccc(Cl)cc1Cl (relative stereo) [Example 705]
logP [1]: 4.27^[b]

O=C(N[C@@H]1CC[C@H]1c1ccc(Cl)cc1C(F)(F)F)c1ccc(Cl)cc1 (relative stereo) [Example 706]
logP [1]: 4.43^[b]

O=C(N[C@@H]1CC[C@@H]1c1ccc(Cl)cc1C(F)(F)F)c1ccc(Cl)cc1 (relative stereo) [Example 707]
logP [1]: 4.04^[b]

O=C(N[C@@H]1CC[C@H]1c1ccc(Cl)cc1C(F)(F)F)c1cccc(Cl)c1 (relative stereo) [Example 708]
logP [1]: 4.46^[b]

O=C(N[C@@H]1CC[C@@H]1c1ccc(Cl)cc1C(F)(F)F)c1cccc(Cl)c1 (relative stereo) [Example 709]
logP [1]: 4.05^[b]

O=C(N[C@@H]1CC[C@H]1c1ccc(Cl)cc1C(F)(F)F)c1ccccc1[N+](=O)[O-] (relative stereo) [Example 712]
logP [1]: 3.61^[b]

O=C(N[C@@H]1CC[C@@H]1c1ccc(Cl)cc1C(F)(F)F)c1ccccc1[N+](=O)[O-] (relative stereo) [Example 713]
logP [1]: 3.36^[b]

O=C(N[C@@H]1CC[C@@H]1c1ccc(Cl)cc1C(F)(F)F)c1cccnc1 (relative stereo) [Example 714]
logP [1]: 2.50^[b]

O=C(N[C@@H]1CC[C@H]1c1ccc(Cl)cc1C(F)(F)F)c1cccnc1Cl (relative stereo) [Example 715]
logP [1]: 3.33^[b]

O=C(N[C@@H]1CC[C@H]1c1ccc(Cl)cc1C(F)(F)F)c1nccnc1Cl (relative stereo) [Example 716]
logP [1]: 3.56^[b]

O=C(N[C@@H]1CC[C@@H]1c1ccc(Cl)cc1C(F)(F)F)c1nccnc1Cl (relative stereo) [Example 717]
logP (HPLC on reversed phase columns, method [b], pH 2.7): 3.24^[b]

Cn1cc(C(=O)NC2CCC2c2ccc(Cl)cc2Cl)c(C(F)F)n1 (single isomer, unassigned) [Preparation Example 2 cis-Isomer, cis-N-[2-(2,4-dichlorophenyl)cyclobutyl]-3-(difluoromethyl)-1-methyl-1H-pyrazole-4-carboxamide]
chromatographic logP [2]: 2.95

Cn1cc(C(=O)NC2CCC2c2ccc(Cl)cc2Cl)c(C(F)F)n1 (single isomer, unassigned) [Preparation Example 2 trans-Isomer, trans-N-[2-(2,4-dichlorophenyl)cyclobutyl]-3-(difluoromethyl)-1-methyl-1H-pyrazole-4-carboxamide]
log P (HPLC-MS, method letter not given): 3.26

O=C(N[C@H]1CCC1c1ccccc1C(F)(F)F)c1ccccc1Cl (stereo in doubt) [Preparation Example 4, cis-2-chloro-N-{2-[2-(trifluoromethyl)phenyl]cyclobutyl}benzamide]
chromatographic logP [2]: 3.3

O=C(N[C@H]1CCC1c1ccccc1C(F)(F)F)c1ccccc1I (stereo in doubt) [Preparation Example 5, cis-2-iodo-N-{2-[2-(trifluoromethyl)phenyl]cyclobutyl}benzamide]
chromatographic logP [2]: 3.44

O=C(NC1CC1c1ccc(Cl)cc1)c1sccc1Cl (centres unmarked) [Compound 203]
logP (method [b], HPLC reversed phase, pH 2.7): 3.51^[b] | logP (method [c], HPLC reversed phase, pH 7.8): 3.45^[c];

O=C(NC1CCC1c1ccccc1Cl)c1ncccc1Cl (stereo not drawn) [Compound 238, trans-3-chloro-N-[2-(2-chlorophenyl)cyclobutyl]pyridine-2-carboxamide]
chromatographic logP [2]: 3.06 | chromatographic logP (pH 2.7, method [b], HPLC reversed phase, pH 2.7, read-out: logP): 3.06

O=C(NC1CC1c1ccc(Cl)cc1)c1ccccc1I (centres unmarked) [Compound 273]
logP [3]: 2.94^[b] | logP [4]: 2.88^[c];

O=C(NC1CC1c1ccc(Cl)cc1)c1cccnc1Cl (centres unmarked) [Compound 274]
logP [3]: 2.14^[b] | logP [4]: 2.10^[c];

Cc1ccccc1C(=O)NC1CC1c1ccc(Cl)cc1 (centres unmarked) [Compound 276]
logP [3]: 2.76^[b] | logP [4]: 2.70^[c];

O=C(NC1CCCC1c1c(F)cccc1F)c1ccccc1C(F)(F)F (centres unmarked) [Compound 323]
logP [3]: 3.43^[b]

O=C(NC1CC1c1ccc(Cl)cc1)c1ccsc1I (centres unmarked) [Compound 460]
logP [3]: 2.94^[b] | logP [4]: 2.93^[c];

O=C(NC1CCC1c1ccc(F)cc1C(F)(F)F)c1ncccc1Cl (centres unmarked) [Compound 478]
logP [3]: 3.39^[b]
